Drawing on BindingDB's records for doi:10.1021/acs.jmedchem.8b00106 (China Pharmaceutical University, 2018), this text covers EC50 for 26 compounds.

pEC50: −log10 of the molar value.

The nature of the experiment: Agonist activity at VDR in human HL60 cells assessed as induction of cell differentiation after 96 hrs by NBT assay.
For orientation: pEC50 means the negative decadic logarithm of the EC50, by convention in mol/L. On to `CCn1c(C(=O)NCCCN2CCOCC2)ccc1C(CC)(CC)c1ccc(OCCC(O)(CC)CC)c(C)c1`, for which the pEC50 was 6.62.

Turning to `CCOC(=O)CN(C)C(=O)c1ccc(C(CC)(CC)c2ccc(OCCC(O)(CC)CC)c(C)c2)n1CC`, the pEC50 was 6.28. For `CCN(CC)CCCNC(=O)c1ccc(C(CC)(CC)c2ccc(OCCC(O)(CC)CC)c(C)c2)n1CC` the value was 7.96. As for `CCC(C)C(NC(=O)c1ccc(C(CC)(CC)c2ccc(OCCC(O)(CC)CC)c(C)c2)n1CC)C(=O)OC` (stereo unspecified), the pEC50 was < 5.00. Take `CCn1c(C(=O)NC(CC(=O)O)C(=O)OC)ccc1C(CC)(CC)c1ccc(OCCC(O)(CC)CC)c(C)c1` (stereo unspecified): the pEC50 was 7.59.

In the case of `CCC(C)C(CO)NC(=O)c1ccc(C(CC)(CC)c2ccc(OCCC(O)(CC)CC)c(C)c2)n1CC` (stereo unspecified), the pEC50 is 6.35.

`C#CCCOC(=O)c1ccc(C(CC)(CC)c2ccc(OCCC(O)(CC)CC)c(C)c2)n1CC`: the negative logarithm of the EC50 (pEC50) was 5.22. As for `C#CC(C)OC(=O)c1ccc(C(CC)(CC)c2ccc(OCCC(O)(CC)CC)c(C)c2)n1CC` (stereo unspecified), the pEC50 was 5.58. As for `CCn1c(C(=O)NCCN(C)C)ccc1C(CC)(CC)c1ccc(OCCC(O)(CC)CC)c(C)c1`, the pEC50 was 7.09. `CCn1c(C(=O)NC(C)CO)ccc1C(CC)(CC)c1ccc(OCC(O)C(C)(C)C)c(C)c1` (stereo unspecified): the negative logarithm of the EC50 (pEC50) is 8.07.

Consider `CCn1c(C(=O)NCC#N)ccc1C(CC)(CC)c1ccc(OCCC(O)(CC)CC)c(C)c1`, for which the pEC50 is 5.97.

Regarding `CCn1c(C(=O)Nc2ccc(OC(F)(F)F)cc2)ccc1C(CC)(CC)c1ccc(OCCC(O)(CC)CC)c(C)c1`, the pEC50 is < 5.00. As to `CCn1c(C(=O)NCCCN(C)C)ccc1C(CC)(CC)c1ccc(OCCC(O)(CC)CC)c(C)c1`, the pEC50 is 8.30. With `CCn1c(C(=O)NC(C)CO)ccc1C(CC)(CC)c1ccc(OCCC(O)(CC)CC)c(C)c1` (stereo unspecified), the pEC50 is 7.02.

Consider `CCn1c(C(=O)Oc2ccc(CC(=O)OC)cc2)ccc1C(CC)(CC)c1ccc(OCCC(O)(CC)CC)c(C)c1`, for which the negative-log EC50 (pEC50) is < 5.00. `CCn1c(C(=O)N(CCC#N)CCC#N)ccc1C(CC)(CC)c1ccc(OCCC(O)(CC)CC)c(C)c1`: the pEC50 was < 5.00. For the compound `CCn1c(C(=O)NCCN)ccc1C(CC)(CC)c1ccc(OCCC(O)(CC)CC)c(C)c1`, the pEC50 is 6.81.

On to `C=CCN(C)C(=O)c1ccc(C(CC)(CC)c2ccc(OCCC(O)(CC)CC)c(C)c2)n1CC`, for which the pEC50 was < 5.00. For `CCn1c(C(=O)N(C)CCO)ccc1C(CC)(CC)c1ccc(OCCC(O)(CC)CC)c(C)c1`, the pEC50 was 7.28. Take `CCC(C)C(NC(=O)c1ccc(C(CC)(CC)c2ccc(OCCC(O)(CC)CC)c(C)c2)n1CC)C(=O)O` (stereo unspecified): the negative logarithm of the EC50 (pEC50) is 6.07. Turning to `CCn1c(C(=O)Nc2cccc(C(F)(F)F)c2)ccc1C(CC)(CC)c1ccc(OCCC(O)(CC)CC)c(C)c1`, the pEC50 is 5.23.

Consider `CCOc1ccc(NC(=O)c2ccc(C(CC)(CC)c3ccc(OCCC(O)(CC)CC)c(C)c3)n2CC)cc1`, for which the pEC50 is 5.79. As for `CCN(CC)CCNC(=O)c1ccc(C(CC)(CC)c2ccc(OCCC(O)(CC)CC)c(C)c2)n1CC`, the pEC50 was 8.64. For `CCn1c(C(=O)NC(C)C(=O)O)ccc1C(CC)(CC)c1ccc(OCCC(O)(CC)CC)c(C)c1` (stereo unspecified) the value was 7.18. As for `CCn1c(C(=O)NC(CO)CCO)ccc1C(CC)(CC)c1ccc(OCCC(O)(CC)CC)c(C)c1` (stereo unspecified), the pEC50 is 5.60. With `CCn1c(C(=O)N(C)CC(=O)O)ccc1C(CC)(CC)c1ccc(OCCC(O)(CC)CC)c(C)c1`, the pEC50 was 7.05.
